How the values were obtained:
Type in all cases: in vivo
Water-Grass = assay: Comparative pre-emergence herbicide test
From the text: Four parts by weight of the compound, 0.08 part of sorbitan trioleate (Span 85), and 0.02 part of a sorbitan monooleate polyoxyethylene derivative (Tween 80) are dipersed in 40 milliliters of acetone to produce a concentrate composition in the form of a water-dispersible liquid containing the predetermined oxirane compound as the sole active agent.
A portion of each of these concentrate compositions were separately dispersed in portions of water to provide aqueous compositions, containing 0.44 pound of the oxirane compound per 100 gallons of ultimate aqueous mixture.
The aqueous compositions were then employed for the treatment of seed beds of good agricultural soil which had been prepared and seeded with the seeds of various grass species and broadleaf plants. The grass species included white winter wheat, cultured rice, pigweeds, crabgrass, cheat grass, wild oats, Johnson grass, barnyard grass and yellow foxtail; and the broadleaf plants included corn. In the treating operations, a predetermined quantity of each of the compositions was applied to separate seedbeds as a soil drench at a rate of about 0.43 acre inch of aqueous composition per acre. The quantities were controlled to supply a substantial uniform dosage in a seedbed equivalent to 1.0, 2.0 and 5.0 pounds of the oxirane compound per acre. These dosages correspond, respectively, to a concentration, within the soil depth penetrated of about 1.6, 3.2 and 8.0 parts by weight of the oxirane compound per million parts by weight of soil. Other seedbeds were similarly seeded with the named plant species but were left untreated to serve as checks.
After about 2 weeks the seedbeds were examined to ascertain what control of the growth of seeds had been obtained.
Separate aqueous compositions containing the 2-(m-chlorophenyl)-2-(2,2,2-trichloroethyl)oxirane (Cmpd. A) and 2-(m-bromophenyl)-2-(2,2,2-trichloroethyl)oxirane (Cmpd. C) compounds of the present invention were prepared as in Example 32 for comparative per-emergence herbicide tests against noxious grass species with the known 2 -(p-chlorophenyl)-2-(2,2,2-trichloroethyl)oxirane (Cmpd. B) compound and 2-(p-bromophenyl)-2-(2,2,2-trichloroethyl)oxirane (Cmpd. D). The pre-emergence tests were conducted in Example 32 and the results of such tests are set forth below in Table III.

Wild Oats = assay: Pre-emergent control of seed germination, soil drench; details: Wild Oats, about 2 weeks
Summary of the method: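 Compound formulated with Span 85/Tween 80 in acetone, dispersed in water, and applied as a soil drench to seeded beds at 1.0, 2.0 and 5.0 lb/acre (about 1.6, 3.2, 8.0 ppm soil); lower concentrations also tested. Germination control scored versus untreated checks after about 2 weeks.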

Johnson Grass = assay: as above; details: Johnson Grass; for Percent Pre-Emergent Control of Seed Germination: about 2 weeks; for % Control: pre-emergence
Crabgrass = assay: as above; details: for Percent Pre-Emergent Control of Seed Germination: Crabgrass, about 2 weeks; for % Control: pre-emergence, Crab Grass

ClC(Cl)(Cl)CC1(c2cccc(Br)c2)CO1 (stereo not drawn) [Example 3, 2-(m-bromophenyl)-2-(2,2,2-trichloroethyl)oxirane]
% Control (Water-Grass; 1/8 Lb/Acre): 95%
% Control (Water-Grass; 1/16 Lb/Acre): 90%
Percent Pre-Emergent Control of Seed Germination (Wild Oats; 1.0 pounds per surface acre): 100%
Percent Pre-Emergent Control of Seed Germination (Wild Oats; 2.0 pounds per surface acre): 100%
Percent Pre-Emergent Control of Seed Germination (Wild Oats; 5.0 pounds per surface acre): 100%
Percent Pre-Emergent Control of Seed Germination (Johnson Grass; 1.0 pounds per surface acre): 95%
Percent Pre-Emergent Control of Seed Germination (Johnson Grass; 2.0 pounds per surface acre): 95%
Percent Pre-Emergent Control of Seed Germination (Johnson Grass; 5.0 pounds per surface acre): 100%
% Control (Johnson Grass; 1/8 Lb/Acre): 95%
% Control (Johnson Grass; 1/16 Lb/Acre): 95%
Percent Pre-Emergent Control of Seed Germination (Crabgrass; 1.0 pounds per surface acre): 0%
Percent Pre-Emergent Control of Seed Germination (Crabgrass; 2.0 pounds per surface acre): 100%
Percent Pre-Emergent Control of Seed Germination (Crabgrass; 5.0 pounds per surface acre): 100%
% Control (Crabgrass; 1/8 Lb/Acre): 95%
% Control (Crabgrass; 1/16 Lb/Acre): 70%

— patent US4018801A, “Substituted oxirane compounds” (The Dow Chemical Company, priority 1975, dated 1977)
